Measured values from patent publication US12286632B2, “Rationally-designed synthetic peptide shuttle agents for delivering polypeptide cargos from an extracellular space to the cytosol and/or nucleus of a target eukaryotic cell, uses thereof, methods and kits relating to same” (Feldan Bio Inc., priority 2016, dated 2025).
Ends that are not written are not given here. Peptide text beside a SMILES is read from it.

Experiments:
[1] = in vitro; conditions: human, HeLa cells
[2] = system: HeLa cells; assay: GFP-NLS protein transduction assay (flow cytometry: Pos cells %, viability %, relative fluorescence intensity; microscopy); conditions: for Mean % cells with GFP signal (±St Dev.; n = 3): Table B3, HeLa cells, GFP-NLS cargo
[3] = in vitro; conditions: human, HeLa cells; remark: listed apart in the source
[4] = Cell viability (%) (±St. Dev.; n = 3)
[5] = Table 10.3a, Protocol B, HeLa, shuttle 50 μM, GFP-NLS 5 μM, 10 seconds
[6] = Table 10.3e, Protocol B, HeLa, shuttle 20 μM, GFP-NLS 5 μM, 1 minute
[7] = Cell viability (%) (±St Dev.; n = 3)

## CSCC[C@H](NC(=O)[C@H](CCCCN)NC(=O)[C@H](CC(N)=O)NC(=O)[C@H](CC(C)C)NC(=O)[C@H](Cc1c[nH]c2ccccc12)NC(=O)[C@H](Cc1ccccc1)NC(=O)[C@H](CS)NC(=O)[C@H](CC(C)C)NC(=O)[C@H](Cc1ccccc1)NC(=O)[C@H](CCC(N)=O)NC(=O)[C@H](Cc1c[nH]cn1)NC(=O)[C@H](Cc1c[nH]cn1)NC(=O)[C@H](Cc1c[nH]cn1)NC(=O)[C@H](Cc1c[nH]cn1)NC(=O)[C@H](Cc1c[nH]cn1)NC(=O)[C@@H](N)Cc1c[nH]cn1)C(=O)NCC(=O)N[C@@H](CCCCN)C(=O)N[C@@H](Cc1c[nH]cn1)C(=O)N[C@@H](CC(N)=O)C(=O)N[C@H](C(=O)N[C@H](C(=O)N[C@@H](Cc1c[nH]c2ccccc12)C(=O)N[C@@H](Cc1c[nH]cn1)C(=O)NCC(=O)N[C@@H](CCCNC(=N)N)C(=O)N[C@@H](Cc1c[nH]cn1)C(=O)N[C@@H](CC(C)C)C(=O)N[C@@H](CCCCN)C(=O)N[C@@H](CS)C(=O)N[C@@H](Cc1c[nH]cn1)C(=O)N[C@@H](CCCCN)C(=O)N[C@@H](CCCNC(=N)N)C(=O)NCC(=O)N[C@@H](CCCCN)C(=O)NCC(=O)O)C(C)C)[C@@H](C)O [FSN3] (H-HHHHHHQFLCFWLNKMGKHNTVWHGRHLKCHKRGKG-OH; N-terminus and C-terminus assumed)
[1]; [4]
  viability: 97.2 ± 2.03%

## CC(C)C[C@H](NC(=O)[C@H](CC(C)C)NC(=O)[C@H](CCCNC(=N)N)NC(=O)[C@H](CCCNC(=N)N)NC(=O)[C@H](Cc1c[nH]c2ccccc12)NC(=O)[C@H](CC(C)C)NC(=O)[C@H](Cc1ccc(O)cc1)NC(=O)[C@H](CC(C)C)NC(=O)[C@H](CC(C)C)NC(=O)[C@H](Cc1c[nH]cn1)NC(=O)[C@H](Cc1c[nH]cn1)NC(=O)[C@H](Cc1c[nH]cn1)NC(=O)[C@H](Cc1c[nH]cn1)NC(=O)[C@H](Cc1c[nH]cn1)NC(=O)[C@@H](N)Cc1c[nH]cn1)C(=O)N[C@@H](CCCCN)C(=O)N[C@@H](Cc1ccccc1)C(=O)N[C@@H](Cc1c[nH]c2ccccc12)C(=O)N[C@@H](CS)C(=O)N[C@@H](C)C(=O)NCC(=O)N[C@@H](CCCNC(=N)N)C(=O)N[C@@H](CCCNC(=N)N)C(=O)N[C@H](C(=O)N[C@@H](Cc1ccc(O)cc1)C(=O)N[C@@H](C)C(=O)N[C@@H](CCCCN)C(=O)N[C@@H](CS)C(=O)N[C@@H](C)C(=O)N[C@@H](CCCCN)C(=O)N[C@@H](C)C(=O)N[C@@H](Cc1ccc(O)cc1)C(=O)NCC(=O)N[C@@H](CS)C(=O)N[C@@H](Cc1ccccc1)C(=O)O)C(C)C [FSN4] (H-HHHHHHLLYLWRRLLKFWCAGRRVYAKCAKAYGCF-OH; N-terminus and C-terminus assumed)
[1]; [4]
  viability: 90.5 ± 4.18%
[2]
  Mean % cells with GFP signal (±St Dev.; n = 3): 5.84 ± 0.49%

## N=C(N)NCCC[C@H](NC(=O)[C@H](CCCNC(=N)N)NC(=O)[C@H](CCCNC(=N)N)NC(=O)[C@H](CCC(N)=O)NC(=O)[C@H](CCCNC(=N)N)NC(=O)[C@H](CCCNC(=N)N)NC(=O)[C@H](CCCCN)NC(=O)[C@H](CCCCN)NC(=O)[C@H](CCCNC(=N)N)NC(=O)CNC(=O)[C@@H](N)Cc1ccc(O)cc1)C(=O)O [TAT, reference compound]
[1]
  viability at 10 s, 50 µM: 94.6 ± 0.44%
[2]; Table 10.4, Protocol B, HeLa, peptide 50 μM, GFP-NLS 5 μM, 10 seconds
  Mean % cells with GFP signal (±St. Dev.; n = 3): 1.1 ± 0.27%
[2]; peptide 50 μM, GFP-NLS 5 μM, 10 seconds, Protocol B
  GFP-NLS transduction (flow cytometry, in words): not able to successfully transduce GFP-NLS

## CC[C@H](C)[C@H](NC(=O)[C@@H](NC(=O)[C@H](Cc1ccccc1)NC(=O)[C@@H](N)CCCCN)[C@@H](C)O)C(=O)N[C@H](C(=O)N[C@@H](Cc1ccccc1)C(=O)N1CCC[C@H]1C(=O)N[C@@H](Cc1c[nH]cn1)C(=O)N[C@@H](CC(N)=O)C(=O)N[C@@H](CCC(N)=O)C(=O)N[C@@H](CCCCN)C(=O)NCC(=O)N[C@@H](CC(N)=O)C(=O)N[C@@H](Cc1c[nH]c2ccccc12)C(=O)N[C@@H](CCCCN)C(=O)N[C@@H](CC(N)=O)C(=O)N[C@H](C(=O)N1CCC[C@H]1C(=O)N[C@@H](CO)C(=O)N[C@@H](CC(N)=O)C(=O)N[C@@H](Cc1ccc(O)cc1)C(=O)N[C@@H](Cc1c[nH]cn1)C(=O)N[C@@H](Cc1ccc(O)cc1)C(=O)N[C@@H](CS)C(=O)N1CCC[C@H]1C(=O)N[C@@H](Cc1ccc(O)cc1)C(=O)N[C@@H](C)C(=O)N[C@@H](CCCNC(=N)N)C(=O)N[C@@H](C)C(=O)N[C@@H](C)C(=O)N[C@@H](C)C(=O)N[C@@H](CCCNC(=N)N)C(=O)N[C@@H](CCC(N)=O)C(=O)N[C@@H](C)C(=O)N[C@@H](CCCNC(=N)N)C(=O)N[C@@H](C)C(=O)O)C(C)C)C(C)C [VSVG-PTD4]
[3]
  viability: 96.2 ± 2.57%
[2]; [5]
  Cell viability (%) (±St. Dev.; n = 3): 100%

## CC(C)C[C@H](NC(=O)[C@H](C)NC(=O)[C@H](CCCCN)NC(=O)[C@H](C)NC(=O)[C@H](CC(C)C)NC(=O)[C@H](CCCCN)NC(=O)[C@H](C)NC(=O)[C@H](CCC(=O)O)NC(=O)[C@H](Cc1c[nH]c2ccccc12)NC(=O)CNC(=O)[C@@H](NC(=O)[C@@H]1CCCN1C(=O)[C@H](CCCNC(=N)N)NC(=O)[C@H](CC(C)C)NC(=O)[C@H](CS)NC(=O)[C@@H](N)CC(C)C)C(C)C)C(=O)N[C@@H](C)C(=O)N[C@@H](CCCCN)C(=O)N[C@@H](C)C(=O)N[C@@H](CC(C)C)C(=O)N[C@@H](C)C(=O)N[C@@H](CCCCN)C(=O)N[C@@H](Cc1c[nH]cn1)C(=O)N[C@@H](CC(C)C)C(=O)N[C@@H](C)C(=O)N[C@@H](CCCCN)C(=O)N[C@@H](C)C(=O)N[C@@H](CC(C)C)C(=O)N[C@@H](C)C(=O)N[C@@H](CCCCN)C(=O)N[C@@H](C)C(=O)N[C@@H](CC(C)C)C(=O)N[C@@H](CCCCN)C(=O)N[C@@H](C)C(=O)N[C@@H](CS)C(=O)N[C@@H](CCC(=O)O)C(=O)N[C@@H](C)C(=O)O [Xentry-KALA] (H-LCLRPVGWEAKLAKALAKALAKHLAKALAKALKACEA-OH)
[3]
  viability: 75.3 ± 4.29%

## HAHHAHHAHKWKLFKKIGAVLKVLTTGYARAAARQARA [3HA-CM18-PTD4]
[3]
  viability: 51.5 ± 4.83%
[2]; [6]
  Cell viability (%) (±St. Dev.; n = 3): 43.6 ± 2.8%

## HHHAHHHKWKLFKKIGAVLKVLTTGYARAAARQARA [HA-CM18-PTD4]
[3]
  viability: 53.2 ± 4.62%
[2]; [6]
  Cell viability (%) (±St. Dev.; n = 3): 68.3 ± 4.1%

## HHHHHHFRKLWLAIVRAKK [FSN8]
[1]; [4]
  viability: 94.5 ± 3.72%

## HHHHHHHHHHHHKWKLFKKIGAVLKVLTTGYARAAARQARA [12His-CM18-PTD4]
[3]
  viability: 97.5 ± 1.57%
[2]; [6]
  Cell viability (%) (±St. Dev.; n = 3): 33.4 ± 4.3%

## HHHHHHKKALLALALHHLAHLALHLALALKKAYARAAARQARA [His--PTD4]
[2]; [5]
  Cell viability (%) (±St. Dev.; n = 3): 98 ± 1.5%

## HHHHHHKLKLRSRLKWGRTQLWRALAKKALLHHHHHH [FSN2]
[1]; [4]
  viability: 91.3 ± 4.66%
[2]
  Mean % cells with GFP signal (±St Dev.; n = 3): 12.13 ± 2.06%

## HHHHHHKRKKKRRAKKKRAWLYLALLLWALALHHHHHH [FSD3]
[1]; [7]
  viability: 91.1 ± 6.37%

## HHHHHHKRKRRSKKRKLWTQGWLLLALLALAHHHHHH [FSN1]
[1]
  viability: 94.3 ± 3.07%
[2]
  Mean % cells with GFP signal (±St Dev.; n = 3): 9.14 ± 0.93%

## HHHHHHKRQLKRKLRKWKRLLRLLRLLARLWLHHHHHH [FSD4]
[1]; [7]
  viability: 86.1 ± 8.15%

## HHHHHHKWAKLLRAFAKAIKKLYARLARRQARTGHHHHHH [FSD13]
[1]; [7]
  viability: 49.5 ± 5.13%

## HHHHHHKWKLFKKIGAVLKVLTTGGWTLNSAGYLLKINLKALAALAKKIL [His-CM18-Transportan (TPT)]
[2]; Table 10.1, Protocol B, HeLa, shuttle 50 μM, GFP-NLS 5 μM, 10 seconds
  Cell viability (%) (±St. Dev.; n = 3): 41.3 ± 3.3%
[2]; [5]
  Cell viability (%) (±St. Dev.; n = 3): 41.3 ± 3.29%

## HHHHHHKWKLFKKIGAVLKVLTTGGWTLNSAGYLLKINLKALAALAKKIL [His-CM18-Transportan]
[3]
  viability: 11.9 ± 1.07%
